Measurements reported in paper PMC8072281 (Frontiers in Immunology, 2021).

Experiments:
[1] = biological target: H-2K^b monomers (Mus musculus, UniProt P01901); type: binding
[2] = test system: H-2K^b on RMA/S cells; type: cell-based, murine
[3] = test system: PPRV-peptide specific CD8+ T cells; set-up: species or system mouse (WT C57BL/6); details: mouse, in vivo
[4] = test system: peptide specific CD8+ T cells; set-up: species or system mouse (C57BL/6); details: mouse, in vivo

Sequence of H-2K^b monomers (P01901 whole entry, looked up): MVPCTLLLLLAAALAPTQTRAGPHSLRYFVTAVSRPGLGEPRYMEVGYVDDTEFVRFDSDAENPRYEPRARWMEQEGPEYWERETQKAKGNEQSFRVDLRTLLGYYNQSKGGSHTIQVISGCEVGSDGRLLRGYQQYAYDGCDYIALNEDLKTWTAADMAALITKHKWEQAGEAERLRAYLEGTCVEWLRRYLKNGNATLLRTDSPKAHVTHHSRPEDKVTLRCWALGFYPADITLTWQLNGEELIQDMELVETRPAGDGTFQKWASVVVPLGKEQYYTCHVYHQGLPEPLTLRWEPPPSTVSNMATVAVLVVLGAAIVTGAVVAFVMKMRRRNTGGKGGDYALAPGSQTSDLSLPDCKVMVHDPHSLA

Row | Sequence | fold change values of H-2K^b monomer stabilization vs control peptide SIINFEKL [1] | stabilization of surface H-2K^b [2] | tetramer positive CD8+ T cells, frequencies and numbers vs control [3] | magnitude of tetramer positive CD8+ T cells [4]
1 | IEHIFESPL | higher values as compared to other peptides |  |  | 
2 | SSITTRSRL | higher values as compared to other peptides |  |  | 
3 | FSAGAYPLL | higher values as compared to other peptides | greater levels than the other peptides | significantly higher frequencies and numbers | higher
4 | IGLVRDFGL | higher values as compared to other peptides | greater levels than the other peptides | significantly higher frequencies and numbers | higher
5 | VILDRERLV | higher values as compared to other peptides |  |  | 
6 | FMYLFLLGV |  | greater levels than the other peptides | not significantly different from the control animals | 
7 | IVVRRTAGV | higher values as compared to other peptides |  |  | 
8 | VAFNILVTL | higher values as compared to other peptides |  |  | 
